Test results from patent US20230139171A1 (SITA Information Networking Computing UK Limited, priority 2019, published 2023).
pIC50: −log10 of the molar value.

Key:
Type in all cases: cell-based
human TLR8 = target: T1, human TLR8 (Homo sapiens, UniProt Q9NR97); assay: TLR8 inhibition reporter assay (HEK-Blue cells, SEAP reporter, R848 stimulation); details: HEK-Blue cells overexpressing human TLR8, SEAP reporter, R848 15.9 μM; read-out: TLR8 IC50
T1 construct: host or cells: HEK-Blue cells
T1 sequence (Q9NR97 27-1041): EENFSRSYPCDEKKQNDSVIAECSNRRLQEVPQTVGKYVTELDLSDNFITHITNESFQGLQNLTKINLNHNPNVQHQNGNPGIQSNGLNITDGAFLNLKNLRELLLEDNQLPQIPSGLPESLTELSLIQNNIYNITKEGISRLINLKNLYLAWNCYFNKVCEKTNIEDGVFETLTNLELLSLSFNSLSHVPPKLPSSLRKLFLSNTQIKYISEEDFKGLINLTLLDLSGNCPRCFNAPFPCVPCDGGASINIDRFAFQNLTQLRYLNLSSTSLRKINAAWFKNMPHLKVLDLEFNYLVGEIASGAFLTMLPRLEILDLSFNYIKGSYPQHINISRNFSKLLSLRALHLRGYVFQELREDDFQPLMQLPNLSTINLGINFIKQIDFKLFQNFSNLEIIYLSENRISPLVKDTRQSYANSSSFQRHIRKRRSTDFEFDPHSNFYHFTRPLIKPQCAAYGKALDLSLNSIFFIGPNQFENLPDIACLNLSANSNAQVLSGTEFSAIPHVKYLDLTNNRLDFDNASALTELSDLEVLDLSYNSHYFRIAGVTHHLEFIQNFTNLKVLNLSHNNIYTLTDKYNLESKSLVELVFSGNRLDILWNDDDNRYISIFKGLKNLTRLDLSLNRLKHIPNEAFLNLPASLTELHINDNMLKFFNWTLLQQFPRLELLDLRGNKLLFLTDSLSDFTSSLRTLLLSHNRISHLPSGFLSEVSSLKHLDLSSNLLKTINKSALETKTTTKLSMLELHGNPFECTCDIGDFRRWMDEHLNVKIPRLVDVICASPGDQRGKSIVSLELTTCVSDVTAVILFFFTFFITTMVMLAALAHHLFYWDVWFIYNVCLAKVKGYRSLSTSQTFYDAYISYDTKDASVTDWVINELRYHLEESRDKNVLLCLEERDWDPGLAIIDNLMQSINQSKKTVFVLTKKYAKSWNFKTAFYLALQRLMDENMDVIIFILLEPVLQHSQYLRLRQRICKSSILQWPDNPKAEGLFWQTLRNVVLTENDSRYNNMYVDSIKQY
How it was run: (§1)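 Dose–response from 0.05 nM to 50 μM was run in HEK-Blue human TLR7, TLR8 and TLR9 reporter cells. After 30 min at room temperature with compound, ligand was added (TLR7 gardiquimod 7.5 μM; TLR8 R848 15.9 μM; TLR9 ODN2006 5 nM) and SEAP measured next day, at 22 h.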

human TLR7 = target: T2, human TLR7 (Homo sapiens, UniProt Q9NYK1); assay: TLR7 inhibition reporter assay (HEK-Blue cells, SEAP reporter, gardiquimod stimulation); details: HEK-Blue cells overexpressing human TLR7, SEAP reporter, gardiquimod 7.5 μM; read-out: TLR7 IC50
T2 construct: host or cells: HEK-Blue cells
T2 sequence (Q9NYK1 27-1049): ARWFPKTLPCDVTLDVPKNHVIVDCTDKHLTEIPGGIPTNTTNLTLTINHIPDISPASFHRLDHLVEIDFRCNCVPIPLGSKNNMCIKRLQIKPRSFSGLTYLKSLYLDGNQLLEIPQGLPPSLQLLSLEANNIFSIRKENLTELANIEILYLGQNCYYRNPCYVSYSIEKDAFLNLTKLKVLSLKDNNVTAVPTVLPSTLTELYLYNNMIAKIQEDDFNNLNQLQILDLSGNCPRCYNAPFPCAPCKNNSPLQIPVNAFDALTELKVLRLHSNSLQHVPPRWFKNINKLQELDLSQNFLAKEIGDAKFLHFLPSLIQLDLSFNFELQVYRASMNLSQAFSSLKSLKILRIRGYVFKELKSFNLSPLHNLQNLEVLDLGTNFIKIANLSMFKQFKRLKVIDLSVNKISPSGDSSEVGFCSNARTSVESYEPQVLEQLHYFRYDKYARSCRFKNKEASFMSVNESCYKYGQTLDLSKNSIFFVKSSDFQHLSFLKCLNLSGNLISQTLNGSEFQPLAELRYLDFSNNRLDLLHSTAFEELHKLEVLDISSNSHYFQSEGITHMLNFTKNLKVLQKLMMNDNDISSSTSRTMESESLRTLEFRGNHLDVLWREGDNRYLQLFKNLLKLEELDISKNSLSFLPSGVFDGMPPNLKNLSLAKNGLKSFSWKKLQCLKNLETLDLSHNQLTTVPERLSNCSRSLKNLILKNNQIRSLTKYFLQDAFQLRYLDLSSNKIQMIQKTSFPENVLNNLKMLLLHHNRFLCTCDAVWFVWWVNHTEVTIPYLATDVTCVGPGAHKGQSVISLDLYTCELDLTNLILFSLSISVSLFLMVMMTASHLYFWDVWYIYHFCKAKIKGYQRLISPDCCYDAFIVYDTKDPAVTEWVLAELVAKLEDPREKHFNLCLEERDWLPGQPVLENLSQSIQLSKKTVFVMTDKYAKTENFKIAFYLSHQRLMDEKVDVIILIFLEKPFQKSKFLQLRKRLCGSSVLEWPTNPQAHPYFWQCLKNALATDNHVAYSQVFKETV
How it was run: as §1

human TLR9 = target: T3, human TLR9 (Homo sapiens, UniProt Q9NR96); assay: TLR9 inhibition reporter assay (HEK-Blue cells, SEAP reporter, ODN2006 stimulation); details: HEK-Blue cells overexpressing human TLR9, SEAP reporter, ODN2006 5 nM
T3 construct: host or cells: HEK-Blue cells
T3 sequence (Q9NR96 26-1032): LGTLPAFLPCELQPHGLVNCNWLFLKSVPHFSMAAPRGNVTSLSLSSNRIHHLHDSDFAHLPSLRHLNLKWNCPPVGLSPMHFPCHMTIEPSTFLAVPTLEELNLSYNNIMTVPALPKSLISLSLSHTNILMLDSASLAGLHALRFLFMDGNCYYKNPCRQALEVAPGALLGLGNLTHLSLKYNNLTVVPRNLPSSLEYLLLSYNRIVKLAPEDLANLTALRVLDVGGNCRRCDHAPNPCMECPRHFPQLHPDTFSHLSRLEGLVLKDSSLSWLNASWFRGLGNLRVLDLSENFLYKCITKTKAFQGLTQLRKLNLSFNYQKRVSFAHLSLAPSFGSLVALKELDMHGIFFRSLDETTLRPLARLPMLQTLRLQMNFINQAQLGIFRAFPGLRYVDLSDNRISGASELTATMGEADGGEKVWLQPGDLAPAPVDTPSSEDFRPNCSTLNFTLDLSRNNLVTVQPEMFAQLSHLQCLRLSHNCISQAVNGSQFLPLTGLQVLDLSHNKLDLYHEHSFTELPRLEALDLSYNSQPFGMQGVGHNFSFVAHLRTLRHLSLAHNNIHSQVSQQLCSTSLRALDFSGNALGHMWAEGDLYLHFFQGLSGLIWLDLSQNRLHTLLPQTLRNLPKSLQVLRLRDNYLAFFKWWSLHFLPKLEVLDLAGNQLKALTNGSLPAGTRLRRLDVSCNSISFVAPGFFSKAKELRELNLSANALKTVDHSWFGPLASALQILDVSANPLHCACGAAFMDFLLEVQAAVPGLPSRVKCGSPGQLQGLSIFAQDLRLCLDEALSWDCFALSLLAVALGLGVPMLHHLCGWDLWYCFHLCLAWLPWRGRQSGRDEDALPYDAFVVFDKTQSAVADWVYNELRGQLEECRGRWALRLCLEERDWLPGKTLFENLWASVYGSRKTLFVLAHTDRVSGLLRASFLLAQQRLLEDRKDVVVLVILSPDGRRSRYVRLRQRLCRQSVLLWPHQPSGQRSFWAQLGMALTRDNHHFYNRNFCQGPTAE
How it was run: as §1

Work on COc1cc(-c2[nH]c3sc(C4CCC(N5CC6(CCOCC6)C5)CC4)nc3c2C(C)C)cn2ncnc12 (single isomer, unassigned) [Example 111, 2-(4-(6-isopropyl-5-(8-methoxy-[1,2,4]triazolo[1,5-a]pyridin-6-yl)-4H-pyrrolo[3,2-d]thiazol-2-yl)cyclohexyl)-7-oxa-2-azaspiro[3.5]nonane] yielded a pIC50 (human TLR8) of 7.47, a pIC50 (human TLR7) of 8.53 and a pIC50 (human TLR9) of 5.41.
For COc1cc(-c2[nH]c3sc(C4CCC(N5CCC6(CC5)COC6)CC4)nc3c2C(C)C)cn2ncnc12 (single isomer, unassigned) [Example 112, 7-(4-(6-isopropyl-5-(8-methoxy-[1,2,4]triazolo[1,5-a]pyridin-6-yl)-4H-pyrrolo[3,2-d]thiazol-2-yl)cyclohexyl)-2-oxa-7-azaspiro[3.5]nonane], the pIC50 (human TLR8) was 7.55, the pIC50 (human TLR7) was 7.94 and the pIC50 (human TLR9) was under 4.30.
Compound COc1cc(-c2[nH]c3sc(C4CCC(N5CCC6(CC5)COC6)CC4)nc3c2C(C)C)cn2ncnc12 (single isomer, unassigned) [Example 113, 7-(4-(6-isopropyl-5-(8-methoxy-[1,2,4]triazolo[1,5-a]pyridin-6-yl)-4H-pyrrolo[3,2-d]thiazol-2-yl)cyclohexyl)-2-oxa-7-azaspiro[3.5]nonane] has a pIC50 (human TLR8) of 7.57, a pIC50 (human TLR7) of 8.96 and a pIC50 (human TLR9) of 5.11.
COc1cc(-c2[nH]c3sc(C4CCC(N5CCC6(CCNC6)C5)CC4)nc3c2C(C)C)cn2ncnc12 (single isomer, unassigned) [Example 114, 2-(4-(2,7-diazaspiro[4.4]nonan-2-yl)cyclohexyl)-6-isopropyl-5-(8-methoxy-[1,2,4]triazolo[1,5-a]pyridin-6-yl)-4H-pyrrolo[3,2-d]thiazole] was tested, and the pIC50 (human TLR8) was 8.85, the pIC50 (human TLR7) was 8.44 and the pIC50 (human TLR9) was 5.84.
With COc1cc(-c2[nH]c3sc(C4CCC(N5CCC6(CCNC6)C5)CC4)nc3c2C(C)C)cn2ncnc12 (single isomer, unassigned) [Example 115, 2-(4-(2,7-diazaspiro[4.4]nonan-2-yl)cyclohexyl)-6-isopropyl-5-(8-methoxy-[1,2,4]triazolo[1,5-a]pyridin-6-yl)-4H-pyrrolo[3,2-d]thiazole] the pIC50 (human TLR8) was 7.77, the pIC50 (human TLR7) was 7.93 and the pIC50 (human TLR9) was 5.92.
Work on COc1cc(-c2[nH]c3sc(C4CCC(NC5CC6(CNC6)C5)CC4)nc3c2C(C)C)cn2ncnc12 (single isomer, unassigned) [Example 116, N-(4-(6-isopropyl-5-(8-methoxy-[1,2,4]triazolo[1,5-a]pyridin-6-yl)-4H-pyrrolo[3,2-d]thiazol-2-yl)cyclohexyl)-2-azaspiro[3.3]heptan-6-amine] yielded a pIC50 (human TLR8) of 8.72, a pIC50 (human TLR7) of 8.51 and a pIC50 (human TLR9) of 5.41.
COc1cc(-c2[nH]c3sc(C4CCC(NC5CC6(CNC6)C5)CC4)nc3c2C(C)C)cn2ncnc12 (single isomer, unassigned) [Example 117, N-(4-(6-isopropyl-5-(8-methoxy-[1,2,4]triazolo[1,5-a]pyridin-6-yl)-4H-pyrrolo[3,2-d]thiazol-2-yl)cyclohexyl)-2-azaspiro[3.3]heptan-6-amine] showed a pIC50 (human TLR8) of 7.64, a pIC50 (human TLR7) of 8.24 and a pIC50 (human TLR9) of 5.12.
With COc1cc(-c2[nH]c3sc(C4CCC(N5CC(O)(C(F)(F)F)C5)CC4)nc3c2C(C)C)cn2ncnc12 (single isomer, unassigned) [Example 118, 1-(4-(6-isopropyl-5-(8-methoxy-[1,2,4]triazolo[1,5-a]pyridin-6-yl)-4H-pyrrolo[3,2-d]thiazol-2-yl)cyclohexyl)-3-(trifluoromethyl)azetidin-3-ol] the pIC50 (human TLR8) was 8.90, the pIC50 (human TLR7) was 8.70 and the pIC50 (human TLR9) was 5.48.
COc1cc(-c2[nH]c3sc(C4CCC(N5CC(O)(C(F)(F)F)C5)CC4)nc3c2C(C)C)cn2ncnc12 (single isomer, unassigned) [Example 119, 1-(4-(6-isopropyl-5-(8-methoxy-[1,2,4]triazolo[1,5-a]pyridin-6-yl)-4H-pyrrolo[3,2-d]thiazol-2-yl)cyclohexyl)-3-(trifluoromethyl)azetidin-3-ol] showed a pIC50 (human TLR8) of 7.27, a pIC50 (human TLR7) of 8.48 and a pIC50 (human TLR9) of under 4.30.
For COc1cc(-c2[nH]c3sc(C4CCC(N5CCNC(=O)C5)CC4)nc3c2C(C)C)cn2ncnc12 (single isomer, unassigned) [Example 120, 4-(4-(6-isopropyl-5-(8-methoxy-[1,2,4]triazolo[1,5-a]pyridin-6-yl)-4H-pyrrolo[3,2-d]thiazol-2-yl)cyclohexyl) piperazin-2-one], the pIC50 (human TLR8) was 7.78, the pIC50 (human TLR7) was 8.38 and the pIC50 (human TLR9) was under 4.30.
Compound COc1cc(-c2[nH]c3sc(C4CCC(N5CCNC(=O)C5)CC4)nc3c2C(C)C)cn2ncnc12 (single isomer, unassigned) [Example 121, 4-(4-(6-isopropyl-5-(8-methoxy-[1,2,4]triazolo[1,5-a]pyridin-6-yl)-4H-pyrrolo[3,2-d]thiazol-2-yl)cyclohexyl) piperazin-2-one] has a pIC50 (human TLR8) of 7.24, a pIC50 (human TLR7) of 8.07 and a pIC50 (human TLR9) of under 4.30.
